Laboratory results from publication PMC6048268, “Resveratrol Inhibits Key Steps of Steroid Metabolism in a Human Estrogen-Receptor Positive Breast Cancer Model: Impact on Cellular Proliferation” (Frontiers in Pharmacology, 2018).
Several values for one entry are separate records, joined by “and”; a condition that tells them apart may be missing. Identical values can stand only once. Like-named read-outs stand apart in the source and are kept apart here.

Key:
MDA-MB-231 cells [1] = test: Metabolism of RES in MDA-MB-231 cells (HPLC)
Procedure: (§1) After 48 h, the cellular media (100 μl) were mixed with 200 μl ice-cold (-20°C) methanol and subsequently centrifuged (14000 rpm, 5 min). The clear supernatants were then diluted 1:1 with aqueous ammonium acetate buffer (5 mM, pH = 7.4), and 80 μl of the samples were injected onto the HPLC column. […] Calibration of the chromatogram was accomplished using the external standard method.
(§2) The modes of inhibition were subsequently determined from Lineweaver–Burk plots, and the corresponding Ki values were calculated from Dixon plots using GraphPad Prism 6.0.

MCF-7 cells [2] = test: Metabolism of RES in MCF-7 cells (HPLC); conditions: MCF-7, Hill model
Procedure: as §1, §2

MCF-7 cells [3] = conditions: for mean formation rate: MCF-7, 100 nM DHEA; for Vmax: MCF-7, precursor DHEA or E1 0–100 nM, Michaelis–Menten
Procedure: (§3) Briefly, cartridges were preconditioned with 2 × 1.0 ml acetonitrile and 3 × 1.0 ml ammonium acetate buffer (10 mM, pH = 5.0), and the samples were loaded onto the columns. After washing with 1 × 1.0 ml ammonium acetate buffer (10 mM, pH = 5.0) and 2 × 1.0 ml acetonitrile/ammonium acetate buffer (10 mM, pH 5.0) 10:90 (v/v), the analytes were eluted using 2 × 650 μl acetonitrile/ammonium acetate buffer (10 mM, pH = 5.0) 95:5 (v/v) and evaporated until dry. Subsequently, samples were reconstituted in 270 μl acetonitrile/ammonium acetate buffer (10 mM, pH = 5.0) 25:75 (v/v) and stored at -80°C until further LC–HRMS analysis.
(§4) After media collection, cell monolayers were washed five times with 2.0 ml DPBS, detached using 400 μl TrypLE® solution (37°C, 5 min), mixed with 600 μl DPBS and transferred into sample vials. Aliquots of these suspensions (100 μl each) were diluted and counted using the Casy® TT Cell Counter to determine the exact number of cells per sample well. The remaining cell suspensions (900 μl each) were gently centrifuged (1000 rpm, 8 min), and the supernatants were discarded. The cell pellets were subsequently resuspended in 100 μl aqueous ammonium acetate buffer (10 mM, pH = 5.0) and lysed by five freeze-thaw-cycles in liquid nitrogen (3 min each), followed by thawing at ambient temperature. Ammonium acetate buffer (1000 μl) was added, and the suspensions were centrifuged (14000 rpm, 5 min). Subsequently, the supernatants were concentrated using the same SPE protocol as described above. All processed samples were then stored at -80°C until further LC–HRMS analysis. For each condition, three biologically independent experiments were performed; the reported values represent the overall means ± SD of all values.
(§5) LC was performed with an UltiMate 3000 RSLC-series system coupled to a maXis HD ESI-Qq-TOF mass spectrometer (Bruker Corporation, Bremen, Germany). A Phenomenex Luna® 3 μm C18(2) 100 Å LC column (250 mm × 4.6 mm I.D.; Phenomenex, Inc., Torrance, CA, United States), preceded by a Hypersil® BDS-C18 guard column (5 μm, 10 mm × 4.6 mm I.D.; Thermo Fisher Scientific, Inc.) was used for the separation of the analytes at a flow rate of 1.0 ml/min and a temperature of 43°C. […] The ESI ion source settings were as follows: capillary voltage: -4.5 kV; dry gas flow rate: 8.0 l/min N2; nebulizer: 1.0 bar N2; and dry temperature: 200°C. The ion transfer parameters were set to 400 Vpp funnel RF and 300 Vpp multipole RF, the quadrupole ion energy was 8.0 eV, and the collision cell parameters were as follows: collision RF, 1100 Vpp; collision energy, 10.0 eV; transfer time, 38 μs; and pre-pulse storage, 18 μs. In the range of m/z 150–500, full-scan mass spectra were recorded.
as §2

MDA-MB-231 cells [4] = conditions: for mean formation rate: MDA-MB-231, 100 nM DHEA; for Km / Vmax: MDA-MB-231, precursor DHEA or E1 0–100 nM, Michaelis–Menten
Procedure: as §3, §4, §5, §2

[5] = system: steroid metabolism in MCF-7 cells; test: Inhibition of steroid metabolism by RES in MCF-7 cells (LC–HRMS); conditions: for formation rate in the presence of RES: 48 h
Procedure: as §3, §4, §5, §2

[6] = MCF-7, 100 nM DHEA + 100 μM RES

Structure (SMILES)	mean formation rate (MCF-7 cells [3]; 48 h) [fmol/10^6 cells/h]	Vmax (MCF-7 cells [3]; 48 h)	mean formation rate (MDA-MB-231 cells [4]; 48 h) [fmol/10^6 cells/h]	Km (MDA-MB-231 cells [4]; 48 h) [µM]	Vmax (MDA-MB-231 cells [4]; 48 h) [fmol/10^6 cells/h]	Km ([5]; MCF-7, 0 μM RES) [µM]	Vmax ([5]; MCF-7, 0 μM RES) [fmol/10^6 cells/h]	Km ([5]; MCF-7, 5 μM RES) [µM]	Vmax ([5]; MCF-7, 5 μM RES)	Km ([5]; MCF-7, 10 μM RES) [µM]	Vmax ([5]; MCF-7, 10 μM RES)	Km ([5]; MCF-7, 25 μM RES) [µM]	Vmax ([5]; MCF-7, 25 μM RES)	Km ([5]; MCF-7, 50 μM RES) [µM]	Vmax ([5]; MCF-7, 50 μM RES)	Km ([5]; MCF-7, 100 μM RES) [µM]	Vmax ([5]; MCF-7, 100 μM RES)	formation rate (MCF-7 cells [3]; MCF-7, 100 nM E1, 48 h) [fmol/10^6 cells/h]	formation rate (MDA-MB-231 cells [4]; MDA-MB-231, 100 nM E1, 48 h)	other results
O=C(O)[C@H]1O[C@@H](Oc2cc(O)cc(/C=C/c3ccc(O)cc3)c2)[C@H](O)[C@@H](O)[C@@H]1O (relative stereo) [RES-3G, trans-resveratrol-3-O-(β-D-glucuronide)]	–	–	–	–	–	–	–	–	–	–	–	–	–	–	–	–	–	–	–	maximum metabolite formation rate (MDA-MB-231 cells [1]; 25 μM RES, 48 h): 23.9 ± 2.4 pmol/10^6 cells/h; Vmax (MDA-MB-231 cells [1]; MDA-MB-231, Michaelis–Menten model): 32.8 ± 8.6 pmol/10^6 cells/h; Vmax (MDA-MB-231 cells [1]; MDA-MB-231, substrate inhibition model): 43.4 ± 2.2 pmol/10^6 cells/h; Slope (n) (MCF-7 cells [2]): 1.86 ± 0.18; Vmax (MCF-7 cells [2]): 422.9 ± 38.9 pmol/10^6 cells/h
C[C@]12CCC(=O)C=C1CC[C@@H]1[C@@H]2CC[C@]2(C)C(=O)CC[C@@H]12 [AD, 4-androstene-3,17-dione]	68.5 ± 11.1	147.4 ± 8.1^∗ fmol/10^6 cells/h	888.9 ± 60.1	0.126 ± 0.0366	1994.0 ± 364.5	0.115 ± 0.0096	147.4 ± 13.1	0.104 ± 0.0104	148.5 ± 9.4 fmol/10^6 cells/h	0.102 ± 0.0079	172.6 ± 7.7^∗ fmol/10^6 cells/h	0.112 ± 0.0107	242.0 ± 14.4^∗ fmol/10^6 cells/h	0.106 ± 0.0042	295.3 ± 9.4^∗ fmol/10^6 cells/h	0.0996 ± 0.0082	328.8 ± 12.9^∗ fmol/10^6 cells/h	–	–	formation rate in the presence of RES [5, 6]: 165.1 ± 18.7 fmol/10^6 cells/h
C[C@]12CC[C@H](OS(=O)(=O)O)CC1=CC[C@@H]1[C@@H]2CC[C@]2(C)C(=O)CC[C@@H]12 [DHEA-S, dehydroepiandrosterone-3-O-sulfate]	870.0 ± 79.1	2873.0 ± 327.4 fmol/10^6 cells/h and 2873.0 ± 527.4 fmol/10^6 cells/h and 2873.0 ± 327.4^∗ fmol/10^6 cells/h	0.14 ± 0.02	0.0554 ± 0.0205	0.22 ± 0.04	0.329 ± 0.0522	2873.0 ± 57.4	0.312 ± 0.0719	2766.2 ± 53.9 fmol/10^6 cells/h	0.324 ± 0.0537	2280.1 ± 81.4^∗ fmol/10^6 cells/h	0.404 ± 0.0931	1797.6 ± 48.9^∗ fmol/10^6 cells/h	0.403 ± 0.0347	993.5 ± 74.8^∗ fmol/10^6 cells/h	0.385 ± 0.0466	522.5 ± 54.8^∗ fmol/10^6 cells/h	–	–	–
C[C@]12CC[C@@H]3c4ccc(OS(=O)(=O)O)cc4CC[C@H]3[C@@H]1CCC2=O [E1-S, estrone-3-O-sulfate]	–	30.4 ± 2.5 fmol/10^6 cells/h and 30.4 ± 2.5^∗ fmol/10^6 cells/h	–	0.12 ± 0.0681	1.08 ± 0.38	0.102 ± 0.0129	30.4 ± 0.5	0.094 ± 0.012	4.51 ± 0.33^∗ fmol/10^6 cells/h	0.101 ± 0.0086	2.54 ± 0.21^∗ fmol/10^6 cells/h	0.12 ± 0.0155	1.23 ± 0.11^∗ fmol/10^6 cells/h	0.109 ± 0.0041	0.57 ± 0.02^∗ fmol/10^6 cells/h	0.105 ± 0.009	0.28 ± 0.01^∗ fmol/10^6 cells/h	15.1 ± 0.8	0.49 ± 0.07 fmol/10^6 cells/h	–
C[C@]12CC[C@@H]3c4ccc(O)cc4CC[C@H]3[C@@H]1CC[C@@H]2O [E2, 17β-estradiol]	–	628.6 ± 62.0 fmol/10^6 cells/h	–	0.174 ± 0.0941	703.0 ± 164.5	0.169 ± 0.0117	628.6 ± 72.0	0.146 ± 0.0156	816.4 ± 76.6^∗ fmol/10^6 cells/h	0.155 ± 0.0097	1001.4 ± 43.0^∗ fmol/10^6 cells/h	0.153 ± 0.0136	1079.8 ± 71.4^∗ fmol/10^6 cells/h	0.172 ± 0.0143	1247.3 ± 56.2^∗ fmol/10^6 cells/h	0.174 ± 0.012	1302.2 ± 64.6^∗ fmol/10^6 cells/h	233.9 ± 13.4	258.9 ± 25.1 fmol/10^6 cells/h	formation rate in the presence of RES ([5]; MCF-7, 100 nM E1 + 100 μM RES): 471.5 ± 43.6 fmol/10^6 cells/h
C[C@]12CC[C@@H]3c4ccc(O[C@@H]5O[C@H](C(=O)O)[C@@H](O)[C@H](O)[C@H]5O)cc4CC[C@H]3[C@@H]1CC[C@@H]2O [E2-G, 17β-estradiol-3-O-(β-D-glucuronide)]	–	7.29 ± 1.36 fmol/10^6 cells/h and 7.29 ± 1.36^∗ fmol/10^6 cells/h	–	0.0879 ± 0.0322	0.33 ± 0.07	0.123 ± 0.0084	7.29 ± 0.36	0.135 ± 0.0059	7.00 ± 0.20 fmol/10^6 cells/h	0.136 ± 0.006	4.98 ± 0.14^∗ fmol/10^6 cells/h	0.132 ± 0.008	2.60 ± 0.12^∗ fmol/10^6 cells/h	0.126 ± 0.0132	1.51 ± 0.11^∗ fmol/10^6 cells/h	0.132 ± 0.0039	0.77 ± 0.02^∗ fmol/10^6 cells/h	–	–	formation rate (MCF-7 cells [3]; human, 48 h, 100 nM): 3.23 ± 0.45 fmol/10^6 cells/h; formation rate (MDA-MB-231 cells [4]; human, 48 h, 100 nM): 0.18 ± 0.02 fmol/10^6 cells/h
C[C@]12CC[C@@H]3c4ccc(OS(=O)(=O)O)cc4CC[C@H]3[C@@H]1CC[C@@H]2O [E2-S, 17β-estradiol-3-O-sulfate]	–	24.7 ± 4.9 fmol/10^6 cells/h and 24.7 ± 4.9^∗ fmol/10^6 cells/h	–	0.038 ± 0.0136	0.16 ± 0.02	0.104 ± 0.0155	24.7 ± 4.9	0.106 ± 0.0159	6.64 ± 0.58^∗ fmol/10^6 cells/h	0.0993 ± 0.0128	2.34 ± 0.19^∗ fmol/10^6 cells/h	0.0949 ± 0.0147	1.01 ± 0.10^∗ fmol/10^6 cells/h	0.101 ± 0.0112	0.56 ± 0.01^∗ fmol/10^6 cells/h	0.0997 ± 0.006	0.27 ± 0.01^∗ fmol/10^6 cells/h	11.8 ± 0.8	0.12 ± 0.02 fmol/10^6 cells/h	–
C[C@]12CC[C@@H]3c4ccc(O)cc4CC[C@H]3[C@@H]1C[C@@H](O)[C@@H]2O [E3, 16α-hydroxy-17β-estradiol]	–	–	–	–	–	–	–	–	–	–	–	–	–	–	–	–	–	0.57 ± 0.06	below the LLOQ	–
O=S(=O)(O)Oc1ccc(/C=C/c2cc(O)cc(OS(=O)(=O)O)c2)cc1 [RES-DS, trans-resveratrol-3-O-4′-O-disulfate]	–	–	–	–	–	–	–	–	–	–	–	–	–	–	–	–	–	–	–	formation of RES metabolite (MDA-MB-231 cells [1]; RES 0–100 μM, 48 h): below the detection limit
C[C@]12CC[C@H]3[C@@H](CCC4=CC(=O)CC[C@@]43C)[C@@H]1CC[C@@H]2O [T, testosterone]	4.78 ± 0.38	9.96 ± 1.42^∗ fmol/10^6 cells/h	57.1 ± 6.2	0.0563 ± 0.0214	91.2 ± 15.9	0.107 ± 0.0063	9.95 ± 0.42	0.107 ± 0.0059	–	0.107 ± 0.0038	18.4 ± 0.7^∗ fmol/10^6 cells/h	0.106 ± 0.0024	26.7 ± 0.4^∗ fmol/10^6 cells/h	0.106 ± 0.004	35.9 ± 0.8^∗ fmol/10^6 cells/h	0.103 ± 0.0048	39.7 ± 1.1^∗ fmol/10^6 cells/h	–	–	formation rate in the presence of RES [5, 6]: 19.4 ± 1.6 fmol/10^6 cells/h
